Data from the supplement of paper PMC10307832.

Assays:
Test in all cases: relative viability (nuclei count vs DMSO), 5 days (fraction); higher = more cells survive
R406 + Vorinostat = compound: COc1cc(Nc2ncc(F)c(Nc3ccc4c(n3)NC(=O)C(C)(C)O4)n2)cc(OC)c1OC [R406] + O=C(CCCCCCC(=O)Nc1ccccc1)NO [Vorinostat] (partner 1 µM)
In short: (§1)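 Relative viability was taken as the ratio of nuclei in treated wells to nuclei in vehicle wells. Lung cancer cell lines in 1536-well plates received compounds by pin tool one day after seeding, either one drug alone or a fixed anchor-drug dose plus five library-drug doses (not always all listed) in √10 steps. Nuclei were counted on 4× images after 5 days of treatment, and values are medians of duplicate plates.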

Daporinad + Vorinostat = compound: O=C(/C=C/c1cccnc1)NCCCCC1CCN(C(=O)c2ccccc2)CC1 [Daporinad] + O=C(CCCCCCC(=O)Nc1ccccc1)NO [Vorinostat] (partner 1 µM)
In short: as §1

Daporinad + Decitabine = compound: O=C(/C=C/c1cccnc1)NCCCCC1CCN(C(=O)c2ccccc2)CC1 [Daporinad] + Nc1ncn([C@H]2C[C@H](O)[C@@H](CO)O2)c(=O)n1 [Decitabine] (partner 2 µM)
In short: as §1

Daporinad + Dasatinib = compound: O=C(/C=C/c1cccnc1)NCCCCC1CCN(C(=O)c2ccccc2)CC1 [Daporinad] + Cc1nc(Nc2ncc(C(=O)Nc3c(C)cccc3Cl)s2)cc(N2CCN(CCO)CC2)n1 [Dasatinib] (partner 0.075 µM)
In short: as §1

Cell Line | relative viability (R406 + Vorinostat; first compound 0.08 µM) | relative viability (R406 + Vorinostat; first compound 0.253 µM) | relative viability (R406 + Vorinostat; first compound 0.8 µM) | relative viability (R406 + Vorinostat; first compound 2.53 µM) | relative viability (R406 + Vorinostat; first compound 8 µM) | relative viability (Daporinad + Vorinostat; first compound 0.0005 µM) | relative viability (Daporinad + Vorinostat; first compound 0.001581 µM) | relative viability (Daporinad + Vorinostat; first compound 0.005 µM) | relative viability (Daporinad + Vorinostat; first compound 0.01581 µM) | relative viability (Daporinad + Decitabine; first compound 0.0005 µM) | relative viability (Daporinad + Decitabine; first compound 0.001581 µM) | relative viability (Daporinad + Decitabine; first compound 0.005 µM) | relative viability (Daporinad + Decitabine; first compound 0.01581 µM) | relative viability (Daporinad + Dasatinib; first compound 0.0005 µM) | relative viability (Daporinad + Dasatinib; first compound 0.001581 µM) | relative viability (Daporinad + Dasatinib; first compound 0.005 µM) | relative viability (Daporinad + Dasatinib; first compound 0.01581 µM)
NCI-H661 | 0.813 | 0.772 | 0.737 | 0.796 | 0.724 | 0.766 | 0.709 | 0.461 | 0.568 | 0.615 | 0.625 | 0.416 | 0.362 | 0.939 | 1 | 0.518 | 0.388
NCI-H727 | 1.01 | 1.26 | 1.22 | 1.24 | 1.18 | 1.11 | 1.25 | 1.45 | 1.03 | 0.822 | 0.903 | 1 | 0.67 | 0.475 | 0.327 | 0.437 | 0.364
NCI-H838 | 0.694 | 0.795 | 0.769 | 0.458 | 0.194 | 0.763 | 0.814 | 0.49 | 0.418 | 0.44 | 0.518 | 0.358 | 0.303 | 0.276 | 0.29 | 0.296 | 0.296
NCI-H1355 | 0.72 | 0.71 | 0.733 | 0.385 | 0.439 | 0.652 | 0.738 | 0.615 | 0.532 | 0.373 | 0.356 | 0.323 | 0.369 | 0.664 | 0.674 | 0.671 | 0.761
NCI-H1395 | 0.633 | 0.731 | 0.843 | 0.399 | 0.417 | 0.627 | 0.795 | 0.94 | 0.794 | 0.713 | 0.816 | 0.765 | 0.784 | 0.361 | 0.464 | 0.419 | 0.422
NCI-H1437 | 0.901 | 0.983 | 0.84 | 0.835 | 0.602 | 0.759 | 0.831 | 0.893 | 0.718 | 0.554 | 0.565 | 0.614 | 0.575 | 0.342 | 0.47 | 0.4 | 0.415
NCI-H1650 | 0.635 | 0.634 | 0.664 | 0.396 | 0.389 | 0.518 | 0.746 | 0.547 | 0.322 | 0.402 | 0.396 | 0.458 | 0.327 | 0.379 | 0.366 | 0.325 | 0.247
NCI-H1651 | 0.557 | 0.612 | 0.615 | 0.547 | 0.545 | 0.613 | 0.594 | 0.695 | 0.529 | 0.711 | 0.67 | 0.731 | 0.47 | 0.419 | 0.433 | 0.439 | 0.446
NCI-H1666 | 1.02 | 1.09 | 1.05 | 1.1 | 1.03 | 0.98 | 1.03 | 0.956 | 1.07 | 0.666 | 0.712 | 0.814 | 0.718 | 0.746 | 0.871 | 0.674 | 0.721
NCI-H1734 | 0.747 | 0.918 | 0.909 | 0.366 | 0.309 | 0.837 | 0.897 | 0.729 | 0.301 | 0.488 | 0.494 | 0.394 | 0.32 | 0.566 | 0.489 | 0.495 | 0.462
NCI-H1755 | 0.778 | 0.861 | 0.757 | 0.642 | 0.468 | 0.76 | 0.934 | 0.807 | 0.751 | 0.747 | 0.716 | 0.713 | 0.652 | 0.414 | 0.435 | 0.388 | 0.408
NCI-H1793 | 0.632 | 0.967 | 0.928 | 0.128 | 0.182 | 0.542 | 0.508 | 0.809 | 0.969 | 0.45 | 0.496 | 0.489 | 0.564 | 0.43 | 0.397 | 0.418 | 0.499
NCI-H1915 | 0.506 | 0.631 | 0.546 | 0.403 | 0.369 | 0.52 | 0.605 | 0.634 | 0.462 | 0.25 | 0.283 | 0.271 | 0.257 | 0.299 | 0.331 | 0.399 | 0.337
NCI-H1944 | 0.504 | 0.585 | 0.566 | 0.466 | 0.45 | 0.57 | 0.524 | 0.647 | 0.613 | 0.44 | 0.406 | 0.497 | 0.411 | 0.228 | 0.232 | 0.221 | 0.237
NCI-H1975 | 0.722 | 0.775 | 0.73 | 0.414 | 0.213 | 0.748 | 0.728 | 0.813 | 0.689 | 0.444 | 0.338 | 0.382 | 0.373 | 0.336 | 0.364 | 0.356 | 0.38
NCI-H1993 | 0.892 | 1.03 | 0.963 | 0.433 | 0.447 | 0.766 | 0.723 | 0.775 | 0.88 | 0.576 | 0.629 | 0.602 | 0.639 | 0.548 | 0.481 | 0.664 | 0.676
NCI-H2009 | 0.711 | 0.749 | 0.785 | 0.739 | 0.363 | 0.745 | 0.79 | 0.708 | 0.347 | 0.356 | 0.395 | 0.381 | 0.372 | 0.295 | 0.337 | 0.277 | 0.22
